This is an account of results in patent US20230391868A1, “COMPOSITIONS FOR AND METHODS OF TREATING CANCER” (The George Washington University, priority 2022, published 2023).

The structures appear in SMILES notation.

Assay [1] concerns mouse SIRPα promoter. The assay is described as follows: SIRPα-luc reporter luciferase assay in A31A7 macrophages. The class given is cell-based. The conditions noted are these: 10 μM of NextA; untreated transfected cells 32.2-fold (FIG. 2B). Here is the method:
The mouse CD47 or SIRPα promoters were cloned into a promoterless pGL4.20[luc2/puro] vector using Genentech's cloning services (San Francisco, CA, USA). Vectors were transfected into SM1 and B16 melanoma cells using Lipofectamine 3000 (L3000008, ThermoFisher) and transfected cells were selected using puromycin. A31A7 macrophages were transiently transfected using jetOPTIMUS DNA transfection reagent (Polyplus, NY, USA). Luminescence was measured using the Luciferase Assay System (E4550, Promega) in a SpectraMax i3× Multi-Mode Microplate Reader (Molecular Devices).
To investigate whether HDAC6 controlled SIRPα expression at the transcriptional level, the mouse SIRPα promoter was cloned into a promoterless pGL4.20 [luc2/puro] vector to create a SIRPα-Luc reporter plasmid. e Nex, A31A7 macrophages were transiently transfected in the absence or presence of 10 μM of NextA and luminescence was evaluated. A31A7 cells were successfully transfected with the SIRPα-luciferase reporter vector as evidenced by a 32.2-fold increase in relative luminescence units (RLU) compared to untransfected cells (FIG. 2B).

For assay [2], the system named is SM1 melanoma cells. The assay is described as follows: Cd47 mRNA upon IFNγ stimulation in SM1 cells. The conditions noted are these: IFNγ for 12 hours. The class given is cell-based, mouse. On the procedure:
qRT-PCR: Total RNA was extracted from cells using the Trizol reagent according to manufacturer's instructions (ThermoFisher Scientific, 15596018). Samples were then processed immediately or stored at −80° C. RNA was quantified using a NanoDrop One Spectrophotometer (ThermoFisher Scientific). The 260/280 ratios were routinely over 1.8. Sample cDNA was produced using the iScript cDNA synthesis kit (Bio-Rad, 1708891). Target mRNA was quantified using MyIQ single-color real-time PCR detection system from Bio-Rad (Bio-Rad, Hercules, CA) and iQ SYBR green Supermix (Bio-Rad, 1708882). The following primers were synthesized by Invitrogen (Waltham, MA) with sequences designed by Origene (Rockville, MD): mouse R-actin (MP200232), mouse Nos2 (MP208933), mouse MRC1 (MP207800), human R-actin (HP204660), human IL-1β (HP200544), human MRC1 (HP206121), human NOS2 (HP200591), human CD209 (HP214086), mouse SIRPα (MP215450), mouse LRP1 (MP207604), human LRP1 (HP206040), mouse MFGE8 (MP208190), human MFGE8 (HP225757), mouse CD36 (MP201923), human CD36 (HP200058), and mouse CD47 (MP201932). Primers for mouse ARG-1 (PPM31770C) and human SIRPα (QT01031051) were purchased from Qiagen (Hilden, Germany). […] Quantification is expressed in arbitrary units and target mRNA levels were normalized to R-actin expression.
Although the mechanism by which IFNγ drives CD47 upregulation is unclear, IFNγ expression correlates to CD47 expression in skin cutaneous melanoma (Ye Z H, et al. (2021) Transl. Oncol. 14:101162). The kinetics of Cd47 mRNA in SM1 and B16 cells upon IFNγ stimulation (100 ng/mL) were evaluated and these mouse melanoma models were determined to have different kinetics (FIG. 9A-FIG. 9B). It was determined that 12 hours was a time point for both models to sustain the IFNγ-mediated upregulation. In FIG. 9B, the role of HDAC6 inhibitors NextA and Tubastatin A in abrogating Cd47 upregulation upon stimulation with IFNγ for 12 hours was evaluated.

In assay [3] the test system is WM164 melanoma cells. Kind of assay: Flow cytometry-based phagocytosis assay, THP1-derived macrophages with WM164 cells. It is filed as cell-based, human. Particulars: co-culture with WM164 melanoma cells (FIG. 4J).
Assay [4] has as its system B16F10 melanoma tumors. Kind of assay: B16F10 melanoma tumor growth in vivo. Further details: species or system mouse. Particulars: B16F10-bearing mice; legend: NextA 25 mg/kg IP, αCD47 50 μg IT (FIG. 10A). From the text: The antitumor effects of the combination therapy were also observed in the B16F10 melanoma model following the same experimental protocol as in the SM1 model. […] Regarding the immunophenotyping of tumors, there were no significant differences in the immune cell populations in the B16 TME by flow cytometry (FIG. 10B-FIG. 10E). Thus, the discrepancies between the SM1 and B16F10 tumor models could be explained by the scarce infiltration of immune cells in the TME of B16F10 tumors compared to SM1 tumors (5% versus 15%, respectively, FIG. 10F) as well as the poor immunogenicity of B16 tumors.

`CCCCN(Cc1ccc(C(=O)NO)cc1)C(=O)Nc1ccccc1` [NextA, Nexturastat A]: the “increase in relative luminescence units (RLU) compared to untransfected cells” value in assay [1] is reported as 7.7 fold. Moreover, the “IFNγ-driven Cd47 upregulation at the transcriptional level” value in assay [2] is on record as “repressed these effects”. Further, in assay [3], the “phagocytosis by unpolarized THP-1 derived macrophages” value is reported as “significantly more phagocytic”. The “B16 melanoma tumor growth” value in assay [4] was “did not decrease”.
